Common to all, as to type: biochemical
In one assay the target is Human JAK1 (Homo sapiens (Human), UniProt P23458). The assay can be described thus: In vitro kinase inhibition test, JAK1 (33P-ATP filter scintillation). The following applies: compound at 1 uM; read-out: JAK1 kinase-phosphorylation inhibitory level (% inhibition). The method, then:
(§1) 1. In Vitro Kinase Inhibition Test
(§2) Kinases used were human-derived JAK1, JAK2, JAK3, and TYK2 (Millipore, Germany). Each of these kinases was diluted with a suitable buffer solution as described below, and then mixed with reagents.
Tris(hydroxymethyl)aminomethane (TRIS) and ethylenediaminetetraacetic acid (EDTA) were dissolved in distilled water at a concentration of 20 mM and 0.2 mM, respectively, and 100 uL of β-mercaptoethanol, 10 uL of Brij-35™, and 5 mL of glycerol, each per 100 mL of the solution, were added to the solution, thereby preparing a JAK1 dilution buffer solution.
(§3) Each compound was dissolved in a 100% DMSO solution at a 50 uM concentration. This solution was reacted with reagents in wells on a 96-well plate to reach a final concentration of 1 uM. Detailed experimental methods for each kinase are described below.
After reaction for about 40 minutes at room temperature, the reaction was stopped by adding 5 uL of a 3% (v/v) phosphoric acid solution. […] The methanol drying is a drying process using an azeotropic effect, wherein methanol is added into an aqueous solution for drying.
(§4) In Tables 5 and 6, the numbers in the “Example” column, which are identification numbers of the examples, indicate the compounds synthesized in the corresponding examples, the values in the “JAK1”, “JAK2”, “JAK3”, and “TYK2” columns represent kinase-phosphorylation inhibitory levels as a percentage (%) of the compounds synthesized in the corresponding examples at a 1 uM concentration. In Tables 5 and 6, negative values substantially indicate no inhibitory effect.
(§5) The inhibitory levels (% inhibition) represent a percentage of reduction in phosphorylation activity in each test group with respect to the phosphorylation activity of a corresponding kinase in a negative control group lacking any of the compounds synthesized in the examples. % inhibition=[(Scintillation value of Test compound non-treatment group−Scintillation value of Test compound treatment group)/(Scintillation value of Test compound non-treatment group)]×100

For the next assay, the target named is Human JAK2 (Homo sapiens (Human), UniProt O60674). The assay can be described thus: In vitro kinase inhibition test, JAK2 (33P-ATP filter scintillation). The following applies: compound at 1 uM; read-out: JAK2 kinase-phosphorylation inhibitory level (% inhibition). The method, then:
as §1, §2
(§6) 3-morpholinopropane-1-sulfonic acid (MOPS) and EDTA were dissolved in distilled water at a concentration of 20 mM and 1 mM, respectively, and 100 uL of β-mercaptoethanol, 10 uL of Brij-35™, 5 mL of glycerol, and 100 mg of bovine serum albumin (BSA), each per 100 mL of the solution, were added to the solution, thereby preparing a JAK2, JAK3, and TYK2 dilution buffer solution.
as §3
(§7) After reaction for about 40 minutes at room temperature, the reaction was stopped by adding 5 uL of a 3% (v/v) phosphoric acid solution.
as §4, §5

For another assay, the target named is Human JAK3 (Homo sapiens (Human), UniProt P52333). The assay can be described thus: In vitro kinase inhibition test, JAK3 (33P-ATP filter scintillation). The following applies: compound at 1 uM; read-out: JAK3 kinase-phosphorylation inhibitory level (% inhibition). The method, then: as §1, §2, §6, §3, §7, §4, §5
The next assay addresses Human TYK2 (Homo sapiens (Human), UniProt P29597). Briefly: In vitro kinase inhibition test, TYK2 (33P-ATP filter scintillation). The following applies: compound at 1 uM; read-out: TYK2 kinase-phosphorylation inhibitory level (% inhibition). Here is the method: as §1, §2, §6, §3, §7, §4, §5

A word on the inhibition: it is the relative decrease from the control value, in per cent.

Human TYK2, sequence (P29597 whole entry): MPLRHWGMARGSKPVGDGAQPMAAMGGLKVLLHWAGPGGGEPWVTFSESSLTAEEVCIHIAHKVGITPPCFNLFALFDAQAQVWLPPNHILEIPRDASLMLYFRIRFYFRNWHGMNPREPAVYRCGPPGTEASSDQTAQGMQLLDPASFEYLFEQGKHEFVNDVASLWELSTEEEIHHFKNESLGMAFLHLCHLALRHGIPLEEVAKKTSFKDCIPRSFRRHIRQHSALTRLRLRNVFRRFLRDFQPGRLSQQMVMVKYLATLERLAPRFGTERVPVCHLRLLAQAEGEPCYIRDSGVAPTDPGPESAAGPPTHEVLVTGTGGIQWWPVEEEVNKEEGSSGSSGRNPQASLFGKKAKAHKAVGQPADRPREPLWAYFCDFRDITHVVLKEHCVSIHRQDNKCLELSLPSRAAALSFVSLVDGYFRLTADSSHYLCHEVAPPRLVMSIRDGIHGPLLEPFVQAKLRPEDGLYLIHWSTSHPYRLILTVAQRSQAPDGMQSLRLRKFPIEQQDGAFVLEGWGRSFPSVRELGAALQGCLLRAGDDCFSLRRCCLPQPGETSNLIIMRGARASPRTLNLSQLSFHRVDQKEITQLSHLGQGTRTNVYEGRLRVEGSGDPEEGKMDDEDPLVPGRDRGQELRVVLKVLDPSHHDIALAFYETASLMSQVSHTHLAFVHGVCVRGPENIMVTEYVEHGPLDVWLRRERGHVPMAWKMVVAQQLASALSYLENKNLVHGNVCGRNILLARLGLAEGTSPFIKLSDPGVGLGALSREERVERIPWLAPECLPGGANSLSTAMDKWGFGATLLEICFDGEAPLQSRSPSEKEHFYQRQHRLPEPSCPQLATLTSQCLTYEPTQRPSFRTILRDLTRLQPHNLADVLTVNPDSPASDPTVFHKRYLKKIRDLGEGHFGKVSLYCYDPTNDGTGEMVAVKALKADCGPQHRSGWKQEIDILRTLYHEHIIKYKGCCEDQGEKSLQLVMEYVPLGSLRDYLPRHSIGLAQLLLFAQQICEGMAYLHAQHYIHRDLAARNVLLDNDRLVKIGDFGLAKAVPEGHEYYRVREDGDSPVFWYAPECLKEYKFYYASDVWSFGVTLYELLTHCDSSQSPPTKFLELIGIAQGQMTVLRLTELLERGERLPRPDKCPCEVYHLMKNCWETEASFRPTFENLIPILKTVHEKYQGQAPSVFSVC
Human JAK2, sequence (O60674 whole entry): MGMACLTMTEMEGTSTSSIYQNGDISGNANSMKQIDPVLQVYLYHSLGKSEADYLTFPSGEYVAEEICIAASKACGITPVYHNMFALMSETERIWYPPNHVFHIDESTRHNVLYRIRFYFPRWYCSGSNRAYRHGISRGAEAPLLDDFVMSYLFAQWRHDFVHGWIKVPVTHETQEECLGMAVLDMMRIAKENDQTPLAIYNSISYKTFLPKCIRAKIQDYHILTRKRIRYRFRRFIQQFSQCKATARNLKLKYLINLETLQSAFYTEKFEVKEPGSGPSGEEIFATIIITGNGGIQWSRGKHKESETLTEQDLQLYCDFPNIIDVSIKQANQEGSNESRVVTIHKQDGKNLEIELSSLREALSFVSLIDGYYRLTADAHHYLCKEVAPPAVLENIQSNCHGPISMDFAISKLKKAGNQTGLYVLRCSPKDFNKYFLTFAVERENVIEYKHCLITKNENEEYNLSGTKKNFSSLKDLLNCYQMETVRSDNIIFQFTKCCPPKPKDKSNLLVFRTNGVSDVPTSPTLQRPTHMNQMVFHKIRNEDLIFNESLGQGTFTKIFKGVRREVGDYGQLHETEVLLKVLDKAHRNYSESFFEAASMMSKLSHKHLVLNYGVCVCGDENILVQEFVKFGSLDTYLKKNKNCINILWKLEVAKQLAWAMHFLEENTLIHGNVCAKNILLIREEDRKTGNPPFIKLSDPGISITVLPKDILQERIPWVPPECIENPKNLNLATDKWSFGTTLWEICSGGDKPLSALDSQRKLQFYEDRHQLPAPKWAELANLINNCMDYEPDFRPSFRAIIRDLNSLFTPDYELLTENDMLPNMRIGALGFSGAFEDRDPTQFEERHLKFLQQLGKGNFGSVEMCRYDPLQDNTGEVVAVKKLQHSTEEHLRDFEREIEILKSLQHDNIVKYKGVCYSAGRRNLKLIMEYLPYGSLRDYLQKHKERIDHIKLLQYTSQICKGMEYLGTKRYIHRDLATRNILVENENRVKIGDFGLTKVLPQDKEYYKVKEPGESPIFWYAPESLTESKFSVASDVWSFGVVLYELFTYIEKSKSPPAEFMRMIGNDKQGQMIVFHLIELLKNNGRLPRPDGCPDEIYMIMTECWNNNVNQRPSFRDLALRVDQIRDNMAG
Human JAK3, sequence (P52333 whole entry): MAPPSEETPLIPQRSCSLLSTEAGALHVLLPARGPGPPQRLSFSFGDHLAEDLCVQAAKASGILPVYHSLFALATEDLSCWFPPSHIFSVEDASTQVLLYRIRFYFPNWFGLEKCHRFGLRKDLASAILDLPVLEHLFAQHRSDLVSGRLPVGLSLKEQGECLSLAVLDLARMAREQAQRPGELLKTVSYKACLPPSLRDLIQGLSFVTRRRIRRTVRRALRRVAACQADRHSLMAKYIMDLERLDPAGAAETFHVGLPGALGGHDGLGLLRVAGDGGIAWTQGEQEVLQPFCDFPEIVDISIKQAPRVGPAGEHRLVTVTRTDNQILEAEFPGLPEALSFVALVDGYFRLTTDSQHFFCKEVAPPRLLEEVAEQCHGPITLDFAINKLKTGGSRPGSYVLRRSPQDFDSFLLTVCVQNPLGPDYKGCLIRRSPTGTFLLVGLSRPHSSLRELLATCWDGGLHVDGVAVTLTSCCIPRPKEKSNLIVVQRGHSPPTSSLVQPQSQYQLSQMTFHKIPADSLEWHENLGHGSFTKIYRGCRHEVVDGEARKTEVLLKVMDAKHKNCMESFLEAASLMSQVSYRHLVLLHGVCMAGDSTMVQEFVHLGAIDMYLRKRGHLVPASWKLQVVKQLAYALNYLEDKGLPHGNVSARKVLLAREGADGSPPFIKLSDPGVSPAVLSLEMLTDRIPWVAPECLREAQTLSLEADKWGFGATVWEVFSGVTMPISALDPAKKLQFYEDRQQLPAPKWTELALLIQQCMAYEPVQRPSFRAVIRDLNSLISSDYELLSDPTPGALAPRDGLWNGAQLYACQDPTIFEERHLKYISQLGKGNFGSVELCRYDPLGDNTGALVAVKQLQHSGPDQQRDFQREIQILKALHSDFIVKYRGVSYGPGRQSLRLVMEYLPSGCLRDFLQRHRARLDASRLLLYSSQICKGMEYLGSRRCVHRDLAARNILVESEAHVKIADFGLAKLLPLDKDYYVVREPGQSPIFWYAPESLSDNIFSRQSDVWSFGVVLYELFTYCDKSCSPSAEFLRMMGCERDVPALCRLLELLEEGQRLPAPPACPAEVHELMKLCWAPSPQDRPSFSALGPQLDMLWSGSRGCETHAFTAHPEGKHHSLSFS
Human JAK1, sequence (P23458 whole entry): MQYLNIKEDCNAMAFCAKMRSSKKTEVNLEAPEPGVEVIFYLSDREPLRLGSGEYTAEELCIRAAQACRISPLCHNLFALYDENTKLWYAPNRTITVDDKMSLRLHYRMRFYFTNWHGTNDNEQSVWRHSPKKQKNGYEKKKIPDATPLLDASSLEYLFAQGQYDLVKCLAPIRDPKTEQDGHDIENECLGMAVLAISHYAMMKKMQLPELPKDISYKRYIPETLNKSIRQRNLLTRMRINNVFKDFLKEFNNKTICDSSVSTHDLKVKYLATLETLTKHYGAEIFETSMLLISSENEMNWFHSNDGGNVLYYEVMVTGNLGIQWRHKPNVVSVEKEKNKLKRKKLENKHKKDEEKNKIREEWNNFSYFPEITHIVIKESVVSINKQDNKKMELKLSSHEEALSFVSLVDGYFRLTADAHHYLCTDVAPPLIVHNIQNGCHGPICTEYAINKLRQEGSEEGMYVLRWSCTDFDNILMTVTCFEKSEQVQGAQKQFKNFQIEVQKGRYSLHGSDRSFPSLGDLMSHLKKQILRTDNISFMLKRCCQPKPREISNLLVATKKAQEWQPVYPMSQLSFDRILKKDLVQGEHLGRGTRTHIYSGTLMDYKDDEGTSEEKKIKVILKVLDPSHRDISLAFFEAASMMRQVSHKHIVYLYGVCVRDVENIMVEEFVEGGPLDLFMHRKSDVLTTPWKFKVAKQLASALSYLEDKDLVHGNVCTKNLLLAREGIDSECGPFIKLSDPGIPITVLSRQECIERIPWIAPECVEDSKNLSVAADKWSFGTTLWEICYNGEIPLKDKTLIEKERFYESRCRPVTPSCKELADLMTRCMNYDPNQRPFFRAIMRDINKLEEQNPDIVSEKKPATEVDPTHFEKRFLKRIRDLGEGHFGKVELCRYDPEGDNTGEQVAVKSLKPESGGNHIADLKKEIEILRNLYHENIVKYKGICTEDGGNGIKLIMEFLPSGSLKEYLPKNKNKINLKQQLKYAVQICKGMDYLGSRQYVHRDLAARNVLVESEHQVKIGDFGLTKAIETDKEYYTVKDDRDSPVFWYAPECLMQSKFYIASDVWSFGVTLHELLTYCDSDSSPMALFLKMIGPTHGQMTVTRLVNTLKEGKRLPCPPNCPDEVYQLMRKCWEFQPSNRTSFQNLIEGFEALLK

Take `CCCS(=O)(=O)N1C[C@H](N(C)c2ncnc3[nH]ccc23)C2(CC2)C1` [Example 35, (R)-N-methyl-N-(5-(propylsulfonyl)-5-azaspiro[2.4]heptan-7-yl)-7H-pyrrolo[2,3-d]pyrimidin-4-amine]: the inhibition at 1 µM on Human JAK1 was found to be 99%; on Human JAK2 it was 78%; at Human JAK3 it was 77%; on Human TYK2, 89%.

As for `CN(c1ncnc2[nH]ccc12)[C@H]1CN(S(=O)(=O)c2ccccc2)CC12CC2` [Example 36, (R)-N-methyl-N-(5-(phenylsulfonyl)-5-azaspiro[2.4]heptan-7-yl)-7H-pyrrolo[2,3-d]pyrimidin-4-amine], the inhibition at 1 µM came out at 97% on Human JAK1, 90% on Human JAK2, 52% on Human JAK3 and 91% at Human TYK2.

For the compound `CN(c1ncnc2[nH]ccc12)[C@H]1CN(S(=O)(=O)c2ccccc2F)CC12CC2` [Example 37, (R)-N-(5-((2-fluorophenyl)sulfonyl)-5-azaspiro[2.4]heptan-7-yl)-N-methyl-7H-pyrrolo[2,3-d]pyrimidin-4-amine], the inhibition at 1 µM at Human JAK1 amounted to 98%; at Human JAK2, 84%; on Human JAK3 it was 61%; at Human TYK2, 90%.

`CN(c1ncnc2[nH]ccc12)[C@H]1CN(S(=O)(=O)c2cccc(F)c2)CC12CC2` [Example 38, (R)-N-(5-((3-fluorophenyl)sulfonyl)-5-azaspiro[2.4]heptan-7-yl)-N-methyl-7H-pyrrolo[2,3-d]pyrimidin-4-amine]: the inhibition at 1 µM on Human JAK1 worked out at 100%; on Human JAK2, 97%; at Human JAK3, 84%; at Human TYK2, 97%.

With `CN(c1ncnc2[nH]ccc12)[C@H]1CN(S(=O)(=O)c2ccc(F)cc2)CC12CC2` [Example 39, (R)-N-(5-((4-fluorophenyl)sulfonyl)-5-azaspiro[2.4]heptan-7-yl)-N-methyl-7H-pyrrolo[2,3-d]pyrimidin-4-amine], the inhibition at 1 µM turned out to be 99% on Human JAK1, 95% at Human JAK2, 65% at Human JAK3 and 93% at Human TYK2.

For the compound `CN(c1ncnc2[nH]ccc12)[C@H]1CN(S(=O)(=O)c2ccccc2C#N)CC12CC2` [Example 40, (R)-2-((7-(methyl(7H-pyrrolo[2,3-d]pyrimidin-4-yl)amino)-5-azaspiro[2.4]heptan-5-yl)sulfonyl)benzonitrile], the inhibition at 1 µM on Human JAK1 was determined as 94%; at Human JAK2, 64%; at Human JAK3 it was 47%; at Human TYK2, 72%.

As for `CN(c1ncnc2[nH]ccc12)[C@H]1CN(S(=O)(=O)c2ccc(C#N)cc2)CC12CC2` [Example 42, (R)-4-((7-(methyl(7H-pyrrolo[2,3-d]pyrimidin-4-yl)amino)-5-azaspiro[2.4]heptan-5-yl)sulfonyl)benzonitrile], the inhibition at 1 µM was 97% at Human JAK1, 49% at Human JAK2, 33% on Human JAK3 and 68% at Human TYK2.

Turning to `CN(c1ncnc2[nH]ccc12)[C@H]1CN(S(=O)(=O)c2ccccc2[N+](=O)[O-])CC12CC2` [Example 43, (R)-N-methyl-N-(5-((2-nitrophenyl)sulfonyl)-5-azaspiro[2.4]heptan-7-yl)-7H-pyrrolo[2,3-d]pyrimidin-4-amine], the inhibition at 1 µM turned out to be 97% on Human JAK1, 70% at Human JAK2, 75% on Human JAK3 and 78% at Human TYK2.

Regarding `CN(c1ncnc2[nH]ccc12)[C@H]1CN(S(=O)(=O)c2cccc([N+](=O)[O-])c2)CC12CC2` [Example 44, (R)-N-methyl-N-(5-((3-nitrophenyl)sulfonyl)-5-azaspiro[2.4]heptan-7-yl)-7H-pyrrolo[2,3-d]pyrimidin-4-amine], the inhibition at 1 µM at Human JAK1 was determined as 100%; at Human JAK2, 96%; at Human JAK3, 96%; on Human TYK2, 98%.

On to `CN(c1ncnc2[nH]ccc12)[C@H]1CN(S(=O)(=O)c2ccc([N+](=O)[O-])cc2)CC12CC2` [Example 45, (R)-N-methyl-N-(5-((4-nitrophenyl)sulfonyl)-5-azaspiro[2.4]heptan-7-yl)-7H-pyrrolo[2,3-d]pyrimidin-4-amine], for which the inhibition at 1 µM on Human JAK1 stood at 100%; on Human JAK2, 84%; on Human JAK3 it was 60%; on Human TYK2, 88%.

Turning to `Cc1cccc(S(=O)(=O)N2C[C@H](N(C)c3ncnc4[nH]ccc34)C3(CC3)C2)c1` [Example 46, (R)-N-methyl-N-(5-(m-tolylsulfonyl)-5-azaspiro[2.4]heptan-7-yl)-7H-pyrrolo[2,3-d]pyrimidin-4-amine], the inhibition at 1 µM at Human JAK1 was found to be 98%; at Human JAK2, 81%; at Human JAK3, 62%; at Human TYK2 it was 92%.

For the compound `COc1ccc(S(=O)(=O)N2C[C@H](N(C)c3ncnc4[nH]ccc34)C3(CC3)C2)cc1` [Example 47, (R)-N-(5-((4-methoxyphenyl)sulfonyl)-5-azaspiro[2.4]heptan-7-yl)-N-methyl-7H-pyrrolo[2,3-d]pyrimidin-4-amine], the inhibition at 1 µM came to 99% at Human JAK1, 69% on Human JAK2, 39% on Human JAK3 and 71% at Human TYK2.

Consider `CN(c1ncnc2[nH]ccc12)[C@H]1CN(S(=O)(=O)c2ccc(C(F)(F)F)cc2)CC12CC2` [Example 48, (R)-N-methyl-N-(5-((4-(trifluoromethyl)phenyl)sulfonyl)-5-azaspiro[2.4]heptan-7-yl)-7H-pyrrolo[2,3-d]pyrimidin-4-amine], for which the inhibition at 1 µM at Human JAK1 amounted to 98%; at Human JAK2, 36%; on Human JAK3, 28%; on Human TYK2 it was 66%.

With `CN(c1ncnc2[nH]ccc12)[C@H]1CN(S(=O)(=O)c2ccc3ccccc3c2)CC12CC2` [Example 49, (R)-N-methyl-N-(5-(naphthalen-2-ylsulfonyI)-5-azaspiro[2.4]heptan-7-yl)-7H-pyrrolo[2,3-d]pyrimidin-4-amine], the inhibition at 1 µM was 98% on Human JAK1, 65% on Human JAK2, 55% on Human JAK3 and 75% on Human TYK2.

Take `CN(c1ncnc2[nH]ccc12)[C@H]1CN(S(=O)(=O)N2CCCCC2)CC12CC2` [Example 50, (R)-N-methyl-N-(5-(piperidin-1-ylsulfonyl)-5-azaspiro[2.4]heptan-7-yl)-7H-pyrrolo[2,3-d]pyrimidin-4-amine]: the inhibition at 1 µM on Human JAK1 was 98%; at Human JAK2, 56%; at Human JAK3, 60%; at Human TYK2, 81%.

Consider `CN(c1ncnc2[nH]ccc12)[C@H]1CN(S(=O)(=O)N2CCOCC2)CC12CC2` [Example 51, (R)-N-methyl-N-(5-(morpholinosulfonyl)-5-azaspiro[2.4]heptan-7-yl)-7H-pyrrolo[2,3-d]pyrimidin-4-amine], for which the inhibition at 1 µM at Human JAK1 turned out to be 97%; on Human JAK2, 60%; at Human JAK3, 49%; at Human TYK2, 69%.

For `CCC(=O)N1CC(N(C)c2ncnc3[nH]ccc23)C2(CC2)C1` (stereo not drawn) [Example 52, 1-(7-(methyl(7H-pyrrolo[2,3-d]pyrimidin-4-yl)amino)-5-azaspiro[2.4]heptan-5-yl)propan-1-one], the inhibition at 1 µM at Human JAK1 is 58%; on Human JAK2, -22%; on Human JAK3, 17%; on Human TYK2, 20%.

Turning to `COCC(=O)N1CC(N(C)c2ncnc3[nH]ccc23)C2(CC2)C1` (stereo not drawn) [Example 53, 2-methoxy-1-(7-(methyl(7H-pyrrolo[2,3-d]pyrimidin-4-yl)amino)-5-azaspiro[2.4]heptan-5-yl)ethan-1-one], the inhibition at 1 µM was 76% at Human JAK1, -18% on Human JAK2, 3% at Human JAK3 and 7% on Human TYK2.

The values are drawn from patent publication US10081635B2, “Substituted N-(pyrrolidine-3-yl)-7H-pyrrolo[2,3-D]pyrimidine-4-amine as janus kinase inhibitor” (YANG JI CHEMICAL CO., LTD., priority 2014, dated 2018).
